From patent US11022604B2, “Dock derived compound against laminin receptor (37 LR) and uses thereof” (Purdue Research Foundation, priority 2017, dated 2021)

Test system: EA.hy926 endothelial cells
Assay: Angiogenesis tube formation assay
Format: cell-based
Description: Expression of PEDF-signaling associated genes from PC-3 cells treated with 50 μM C3, compared to DMSO control and normalized to GAPDH (n=3, mean±SEM). A Holm-Sidak multiple t test was used for statistical analysis (*p<0.05,**O<0.01, ***<0.001). […] Average tube count for 0.1% DMSO, 0.5% DMSO, and 1, 10 and 50 μM treatment with C3 (n=7, mean±SEM). 1 and 10 μM C3 were compared with respective 0.5% DMSO (unpaired two-tailed t test, ****<0.0001). 50 μM C3 was compared with respective 0.1% DMSO (unpaired two-tailed t test p<0.0001).
Wound Healing Assay. PC-3 cells were seeded in 6 well plates at 3×10^5 cells per well in complete media until the cells reached confluency. Three horizontal and three vertical scratches were made in the confluent monolayers using a standard 200 μL pipette tip and cellular debris were removed by washing with 1×DPBS three times. 1×RPMI-1640 supplemented with C3 or DMSO was added and cells were incubated for 48 hours as described previously. […] Images were uploaded and analyzed for scratch geometry using the tscratch program (96). First, global thresholding was performed, then individual images were manually inspected for single image threshold adjustment and scratch geometries were quantified. […] The samples were analyzed using the Dionex UltiMate 3000 RSLC Nano System coupled to the Q Exactive™ HF Hybrid Quadrupole-Orbitrap MS (Thermo Scientific). […]

## O=C(c1cc(F)cc2c1OCOC2)N1CCN(C2c3ccccc3-c3ccccc32)CC1 [Compound C3, [4-(9h-fluoren-9-yl)piperazino](6-fluoro-4h-1,3-benzodioxin-8-yl)methanone]
  calcein uptake: did not alter calcein uptake
